These molecules were tested against PI3Kβ (Homo sapiens (Human), UniProt P42338) (assay: PI3K isoform TR-FRET enzymatic assay (PI3Kβ)). Conditions: 2× Km ATP, 30 minutes at 25° C.
Chain of PI3Kβ (P42338 whole entry, canonical isoform): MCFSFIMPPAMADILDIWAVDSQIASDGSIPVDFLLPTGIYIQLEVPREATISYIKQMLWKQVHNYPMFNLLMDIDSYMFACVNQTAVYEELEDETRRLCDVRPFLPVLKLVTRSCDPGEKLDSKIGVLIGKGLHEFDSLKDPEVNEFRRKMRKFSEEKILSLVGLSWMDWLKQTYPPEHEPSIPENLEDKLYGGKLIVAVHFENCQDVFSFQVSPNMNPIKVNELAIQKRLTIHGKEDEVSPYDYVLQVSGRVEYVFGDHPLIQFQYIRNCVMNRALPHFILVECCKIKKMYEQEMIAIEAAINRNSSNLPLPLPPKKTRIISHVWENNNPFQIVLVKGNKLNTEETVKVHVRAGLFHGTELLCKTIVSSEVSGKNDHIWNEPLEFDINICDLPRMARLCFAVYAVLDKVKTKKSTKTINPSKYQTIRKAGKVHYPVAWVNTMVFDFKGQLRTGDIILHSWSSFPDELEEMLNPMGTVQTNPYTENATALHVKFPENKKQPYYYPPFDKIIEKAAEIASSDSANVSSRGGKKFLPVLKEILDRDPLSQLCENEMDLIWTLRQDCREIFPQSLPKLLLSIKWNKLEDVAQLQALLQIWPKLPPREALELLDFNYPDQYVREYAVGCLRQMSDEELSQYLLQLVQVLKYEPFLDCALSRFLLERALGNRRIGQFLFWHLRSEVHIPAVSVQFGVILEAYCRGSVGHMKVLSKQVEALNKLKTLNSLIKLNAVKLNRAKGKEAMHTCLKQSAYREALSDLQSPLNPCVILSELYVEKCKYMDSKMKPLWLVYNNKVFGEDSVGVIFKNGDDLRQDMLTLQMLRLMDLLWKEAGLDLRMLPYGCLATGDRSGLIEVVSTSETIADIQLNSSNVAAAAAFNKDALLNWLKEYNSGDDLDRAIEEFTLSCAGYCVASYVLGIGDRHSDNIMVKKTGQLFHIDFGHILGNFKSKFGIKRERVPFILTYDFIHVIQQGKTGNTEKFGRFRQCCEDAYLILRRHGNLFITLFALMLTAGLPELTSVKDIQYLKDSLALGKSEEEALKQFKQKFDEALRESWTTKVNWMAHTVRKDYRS
Chain of PI3Kβ (P27986 whole entry partner, canonical isoform): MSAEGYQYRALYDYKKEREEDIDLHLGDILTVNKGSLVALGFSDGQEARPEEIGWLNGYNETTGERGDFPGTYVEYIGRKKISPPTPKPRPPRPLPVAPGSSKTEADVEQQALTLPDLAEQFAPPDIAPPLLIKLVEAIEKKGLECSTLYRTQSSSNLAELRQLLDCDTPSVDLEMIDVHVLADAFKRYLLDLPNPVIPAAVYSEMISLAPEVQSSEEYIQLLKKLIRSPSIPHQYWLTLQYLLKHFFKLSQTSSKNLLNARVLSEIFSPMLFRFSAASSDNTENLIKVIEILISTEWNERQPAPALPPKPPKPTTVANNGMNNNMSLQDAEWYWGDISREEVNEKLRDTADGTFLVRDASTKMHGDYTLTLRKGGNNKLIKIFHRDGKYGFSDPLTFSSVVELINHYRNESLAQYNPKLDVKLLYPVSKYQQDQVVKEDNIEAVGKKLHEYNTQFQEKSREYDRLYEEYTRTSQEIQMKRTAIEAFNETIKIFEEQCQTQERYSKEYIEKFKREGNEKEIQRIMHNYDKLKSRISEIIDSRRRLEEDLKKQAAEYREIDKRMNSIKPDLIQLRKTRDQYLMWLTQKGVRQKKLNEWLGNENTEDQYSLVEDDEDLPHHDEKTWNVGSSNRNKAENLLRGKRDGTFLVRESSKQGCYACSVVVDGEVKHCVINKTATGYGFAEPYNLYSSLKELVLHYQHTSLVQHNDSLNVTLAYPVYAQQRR
Type: biochemical
Method in brief: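 Heterodimeric recombinant PI3Kβ was incubated with compound 30 minutes at 25° C. Product was detected by TR-FRET competition with 10 nM labeled PIP3 for 35 nM Eu-GRP-1 PH domain after EDTA stop. Data were normalized to 1 μM wortmannin and DMSO, and IC50 was taken from a four-parameter fit.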
For CCc1nc2c(-c3cnc[nH]3)cc(N3CCOCC3)cc2n1-c1cc(C)nc2c(Cl)ccc(Cl)c12 [Example 334, 4-[3-(5,8-dichloro-2-methylquinolin-4-yl)-2-ethyl-7-(1H-imidazol-5-yl)benzimidazol-5-yl]morpholine], the IC50 was 24 nM.
Work on Cc1nc2c(-c3cnc[nH]3)cc(N3CCOCC3)cc2n1-c1ccnc2c(F)ccc(F)c12 [Example 335, 4-[3-(5,8-difluoroquinolin-4-yl)-7-(1H-imidazol-5-yl)-2-methylbenzimidazol-5-yl]morpholine] yielded an IC50 of 15 nM.
Fc1ccc(F)c2c(-n3cnc4c(-c5cnc[nH]5)cc(N5CCOCC5)cc43)ccnc12 [Example 336, 4-[3-(5,8-difluoroquinolin-4-yl)-7-(1H-imidazol-5-yl)benzimidazol-5-yl]morpholine] was tested, and the IC50 was 5 nM.
Molecule CCc1nc2c(-c3cnc[nH]3)cc(N3CCOCC3)cc2n1-c1ccnc2c(F)ccc(F)c12 [Example 337, 4-[3-(5,8-difluoroquinolin-4-yl)-2-ethyl-7-(1H-imidazol-5-yl)benzimidazol-5-yl]morpholine] has an IC50 of 20 nM.
For CCc1nc2c(-c3cnn[nH]3)cc(N3CCOCC3)cc2n1-c1ccnc2c(F)ccc(F)c12 [Example 376, 4-(1-(5,8-difluoroquinolin-4-yl)-2-ethyl-4-(1H-1,2,3-triazol-5-yl)-1H-benzo[d]imidazol-6-yl)morpholine], the IC50 was 70 nM.
Work on Cc1nc2c(-c3cnn[nH]3)cc(N3CCOCC3)cc2n1-c1ccnc2c(F)ccc(F)c12 [Example 377, 4-(1-(5,8-difluoroquinolin-4-yl)-2-methyl-4-(1H-1,2,3-triazol-5-yl)-1H-benzo[d]imidazol-6-yl)morpholine] yielded an IC50 of 35 nM.
With Clc1cccc2c(-n3c(C4CC4)nc4c(-c5cnn[nH]5)cc(N5CCOCC5)cc43)ccnc12 [Example 378, 4-(1-(8-chloroquinolin-4-yl)-2-cyclopropyl-4-(1H-1,2,3-triazol-5-yl)-1H-benzo[d]imidazol-6-yl)morpholine] the IC50 was 27 nM.
Molecule c1ccc2c(-n3cnc4c(-c5nnc[nH]5)cc(N5CCOCC5)cc43)cc(N3CCNCC3)nc2c1 [Example 379, 4-(1-(2-(piperazin-1-yl)quinolin-4-yl)-4-(4H-1,2,4-triazol-3-yl)-1H-benzo[d]imidazol-6-yl)morpholine] has an IC50 of 8 nM.
Cc1nnc(-c2cc(N3CCOCC3)cc3c2ncn3-c2cc(-c3cn[nH]c3)nc3ccccc23)[nH]1 [Example 380, 4-(1-(2-(1H-pyrazol-4-yl)quinolin-4-yl)-4-(5-methyl-4H-1,2,4-triazol-3-yl)-1H-benzo[d]imidazol-6-yl)morpholine] showed an IC50 of 240 nM.
c1ccc2c(-n3cnc4c(-c5nnc[nH]5)cc(N5CCOCC5)cc43)cc(-c3cn[nH]c3)nc2c1 [Example 381, 4-(1-(2-(1H-pyrazol-4-yl)quinolin-4-yl)-4-(4H-1,2,4-triazol-3-yl)-1H-benzo[d]imidazol-6-yl)morpholine] gave an IC50 of 24 nM.
With Cc1nnc(-c2cc(N3CCOCC3)cc3c2ncn3-c2cc(-c3cc[nH]n3)nc3ccccc23)[nH]1 [Example 382, 4-(1-(2-(1H-pyrazol-3-yl)quinolin-4-yl)-4-(5-methyl-4H-1,2,4-triazol-3-yl)-1H-benzo[d]imidazol-6-yl)morpholine] the IC50 was 130 nM.
c1ccc2c(-n3cnc4c(-c5nnc[nH]5)cc(N5CCOCC5)cc43)cc(-c3cc[nH]n3)nc2c1 [Example 383, 4-(1-(2-(1H-pyrazol-3-yl)quinolin-4-yl)-4-(4H-1,2,4-triazol-3-yl)-1H-benzo[d]imidazol-6-yl)morpholine] gave an IC50 of 11 nM.
CCc1nc2c(-c3ncc[nH]3)cc(N3CCOCC3)cc2n1-c1ccnc2c(F)ccc(F)c12 [Example 387, 4-(1-(5,8-difluoroquinolin-4-yl)-2-ethyl-4-(1H-imidazol-2-yl)-1H-benzo[d]imidazol-6-yl)morpholine] was tested, and the IC50 was 13 nM.
CCCc1nc2c(-c3cn[nH]c3)cc(N3CCOCC3)cc2n1-c1ccnc2c(F)ccc(F)c12 [Example 388, 4-(1-(5,8-difluoroquinolin-4-yl)-2-propyl-4-(1H-pyrazol-4-yl)-1H-benzo[d]imidazol-6-yl)morpholine] was tested, and the IC50 was 1100 nM.

Source: patent US10214519B2, “Phosphatidylinositol 3-kinase inhibitors” (Gilead Sciences, Inc., priority 2016, dated 2019)
